Assay results published in patent US20250084061A1, “SULFONYL FUNCTIONAL COMPOUND, METHODS AND USES THEREOF” (Hubei Biopesticide Engineering Research Centre, priority 2023, published 2025).
Read-outs that look alike come from different tables or passages of the source.

Tests used:
Heliothis armigera = test: Insecticidal activity, artificial feed surface coating method; type: in vivo; details: Helicoverpa armigera, read-out: Insecticidal activity (mortality rate grade) Heliothis armigera
In short: (§1)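 Artificial diet in 24-well plates, surface-coated with test solution at 500, 250 and 125 mg/L. Each concentration was tested in two replicates (Rep1, Rep2).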

Plutella xylostella = test: as above; type: in vivo; details: Plutella xylostella, read-out: Insecticidal activity (mortality rate grade) Plutella xylostella
In short: as §1

Septoria nodorum Berk. = test: Bactericidal (fungicidal) activity by microdilution; type: cell-based
Magnaporthe oryzae = type: cell-based
Pythium aphanidermatum = test: Bactericidal (fungicidal) activity by microdilution; type: cell-based
Aphiscraccivora = test: Insecticidal activity, dipping method; type: in vivo
In short: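 Aphids tested by dipping in ethanol-dissolved compound diluted to 500, 250 or 125 mg/L with 0.1 mL/L Tween-80, two replicates plus blank control. Mortality scored on a 0/3/5/7/9 scale for 0–30, 30–50, 50–70, 70–90 and 90–100%.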

Leptosphaeria biglobosa = test: Bactericidal (fungicidal) activity by microdilution; type: cell-based
[1] = test system: Verticillium dahliae.kieb.; test: as above; type: cell-based
[2] = test system: Colletotrichum gloeobosporioids; test: as above; type: cell-based
Thanatephorus cucumeris = test: as above; type: cell-based
[3] = test system: Fusarium oxysporum f. sp. Niveum; test: as above; type: cell-based
Alternaria kikuchiana = test: as above; type: cell-based
Botrytis cinerea = test: as above; type: cell-based
[4] = test system: Corynespora leaf spot of tomato; test: as above; type: cell-based
Fusarium culmorum = test: as above; type: cell-based
Rhizoctonia solani = test: as above; type: cell-based

## COC(=O)Nc1nc2ccccc2n1CCCCS(=O)(=O)O [III-3]
Heliothis armigera; 125 mg/L test solution
  mortality at 125 µg/mL: 0 to 30%
Heliothis armigera; 250 mg/L test solution
  mortality at 250 µg/mL: 0 to 30%
Heliothis armigera; 500 mg/L test solution
  mortality at 500 µg/mL: 0 to 30%
Plutella xylostella; 125 mg/L test solution
  mortality at 125 µg/mL: 0 to 30%
Plutella xylostella; 250 mg/L test solution
  mortality at 250 µg/mL: 0 to 30%
Plutella xylostella; 500 mg/L test solution
  mortality at 500 µg/mL: 0 to 30%
Septoria nodorum Berk.; 12.5 mg/L
  Fungicidal activity (antibacterial rate grade) Septoria nodorum Berk.: 9 (The antibacterial rate of 90˜100% could be set as 9 if the target has totally no growth)
Septoria nodorum Berk.; 25 mg/L
  Fungicidal activity (antibacterial rate grade) Septoria nodorum Berk.: 9 (The antibacterial rate of 90˜100% could be set as 9 if the target has totally no growth)
Septoria nodorum Berk.; 50 mg/L
  Fungicidal activity (antibacterial rate grade) Septoria nodorum Berk.: 9 (The antibacterial rate of 90˜100% could be set as 9 if the target has totally no growth)
Septoria nodorum Berk.; 100 mg/L
  Fungicidal activity (antibacterial rate grade) Septoria nodorum Berk.: 9 (The antibacterial rate of 90˜100% could be set as 9 if the target has totally no growth)
Magnaporthe oryzae; 12.5 mg/L
  Fungicidal activity (antibacterial rate grade) Magnaporthe oryzae: 9 (The antibacterial rate of 90˜100% could be set as 9 if the target has totally no growth)
Magnaporthe oryzae; 25 mg/L
  Fungicidal activity (antibacterial rate grade) Magnaporthe oryzae: 9 (The antibacterial rate of 90˜100% could be set as 9 if the target has totally no growth)
Magnaporthe oryzae; 50 mg/L
  Fungicidal activity (antibacterial rate grade) Magnaporthe oryzae: 9 (The antibacterial rate of 90˜100% could be set as 9 if the target has totally no growth)
Magnaporthe oryzae; 100 mg/L
  Fungicidal activity (antibacterial rate grade) Magnaporthe oryzae: 9 (The antibacterial rate of 90˜100% could be set as 9 if the target has totally no growth)
Pythium aphanidermatum; 12.5 mg/L
  Fungicidal activity (antibacterial rate grade) Pythium aphanidematum: 3 (The antibacterial rate of 0˜30% could be set as 3 if the growth of the target is normal and consistent with that of the blank control)
Pythium aphanidermatum; 25 mg/L
  Fungicidal activity (antibacterial rate grade) Pythium aphanidematum: 3 (The antibacterial rate of 0˜30% could be set as 3 if the growth of the target is normal and consistent with that of the blank control)
Pythium aphanidermatum; 50 mg/L
  Fungicidal activity (antibacterial rate grade) Pythium aphanidematum: 3 (The antibacterial rate of 0˜30% could be set as 3 if the growth of the target is normal and consistent with that of the blank control)
Pythium aphanidermatum; 100 mg/L
  Fungicidal activity (antibacterial rate grade) Pythium aphanidematum: 3 (The antibacterial rate of 0˜30% could be set as 3 if the growth of the target is normal and consistent with that of the blank control)
Aphiscraccivora; 125 mg/L test solution
  Insecticidal activity (mortality rate grade) Aphiscraccivora: 0 (mortality rate of 0˜30%)
Aphiscraccivora; 250 mg/L test solution
  Insecticidal activity (mortality rate grade) Aphiscraccivora: 0 (mortality rate of 0˜30%)
Aphiscraccivora; 500 mg/L test solution
  Insecticidal activity (mortality rate grade) Aphiscraccivora: 0 (mortality rate of 0˜30%)
Leptosphaeria biglobosa; 12.5 mg/L
  Fungicidal activity (antibacterial rate grade) Leptosphaeria biglobosa: 9 (The antibacterial rate of 90˜100% could be set as 9 if the target has totally no growth)
Leptosphaeria biglobosa; 25 mg/L
  Fungicidal activity (antibacterial rate grade) Leptosphaeria biglobosa: 9 (The antibacterial rate of 90˜100% could be set as 9 if the target has totally no growth)
Leptosphaeria biglobosa; 50 mg/L
  Fungicidal activity (antibacterial rate grade) Leptosphaeria biglobosa: 9 (The antibacterial rate of 90˜100% could be set as 9 if the target has totally no growth)
Leptosphaeria biglobosa; 100 mg/L
  Fungicidal activity (antibacterial rate grade) Leptosphaeria biglobosa: 9 (The antibacterial rate of 90˜100% could be set as 9 if the target has totally no growth)
[1]; 12.5 mg/L
  Fungicidal activity (antibacterial rate grade) Verticillium dahliae. kieb.: 9 (The antibacterial rate of 90˜100% could be set as 9 if the target has totally no growth)
[1]; 25 mg/L
  Fungicidal activity (antibacterial rate grade) Verticillium dahliae. kieb.: 9 (The antibacterial rate of 90˜100% could be set as 9 if the target has totally no growth)
[1]; 50 mg/L
  Fungicidal activity (antibacterial rate grade) Verticillium dahliae. kieb.: 9 (The antibacterial rate of 90˜100% could be set as 9 if the target has totally no growth)
[1]; 100 mg/L
  Fungicidal activity (antibacterial rate grade) Verticillium dahliae. kieb.: 9 (The antibacterial rate of 90˜100% could be set as 9 if the target has totally no growth)
[2]; 12.5 mg/L
  Fungicidal activity (antibacterial rate grade) Colletotrichum gloeobosporioids: 9 (The antibacterial rate of 90˜100% could be set as 9 if the target has totally no growth)
[2]; 25 mg/L
  Fungicidal activity (antibacterial rate grade) Colletotrichum gloeobosporioids: 9 (The antibacterial rate of 90˜100% could be set as 9 if the target has totally no growth)
[2]; 50 mg/L
  Fungicidal activity (antibacterial rate grade) Colletotrichum gloeobosporioids: 9 (The antibacterial rate of 90˜100% could be set as 9 if the target has totally no growth)
[2]; 100 mg/L
  Fungicidal activity (antibacterial rate grade) Colletotrichum gloeobosporioids: 9 (The antibacterial rate of 90˜100% could be set as 9 if the target has totally no growth)
Thanatephorus cucumeris; 12.5 mg/L
  Fungicidal activity (antibacterial rate grade) Thanatephorus cucumeris: 9 (The antibacterial rate of 90˜100% could be set as 9 if the target has totally no growth)
Thanatephorus cucumeris; 25 mg/L
  Fungicidal activity (antibacterial rate grade) Thanatephorus cucumeris: 9 (The antibacterial rate of 90˜100% could be set as 9 if the target has totally no growth)
Thanatephorus cucumeris; 50 mg/L
  Fungicidal activity (antibacterial rate grade) Thanatephorus cucumeris: 9 (The antibacterial rate of 90˜100% could be set as 9 if the target has totally no growth)
Thanatephorus cucumeris; 100 mg/L
  Fungicidal activity (antibacterial rate grade) Thanatephorus cucumeris: 9 (The antibacterial rate of 90˜100% could be set as 9 if the target has totally no growth)
[3]; 12.5 mg/L
  Fungicidal activity (antibacterial rate grade) Fusarium oxysporum f. sp. Niveum: 9 (The antibacterial rate of 90˜100% could be set as 9 if the target has totally no growth)
[3]; 25 mg/L
  Fungicidal activity (antibacterial rate grade) Fusarium oxysporum f. sp. Niveum: 9 (The antibacterial rate of 90˜100% could be set as 9 if the target has totally no growth)
[3]; 50 mg/L
  Fungicidal activity (antibacterial rate grade) Fusarium oxysporum f. sp. Niveum: 9 (The antibacterial rate of 90˜100% could be set as 9 if the target has totally no growth)
[3]; 100 mg/L
  Fungicidal activity (antibacterial rate grade) Fusarium oxysporum f. sp. Niveum: 9 (The antibacterial rate of 90˜100% could be set as 9 if the target has totally no growth)
Alternaria kikuchiana; 12.5 mg/L
  Fungicidal activity (antibacterial rate grade) Alternaria kikuchiana: 3 (The antibacterial rate of 0˜30% could be set as 3 if the growth of the target is normal and consistent with that of the blank control)
Alternaria kikuchiana; 25 mg/L
  Fungicidal activity (antibacterial rate grade) Alternaria kikuchiana: 3 (The antibacterial rate of 0˜30% could be set as 3 if the growth of the target is normal and consistent with that of the blank control)
Alternaria kikuchiana; 50 mg/L
  Fungicidal activity (antibacterial rate grade) Alternaria kikuchiana: 3 (The antibacterial rate of 0˜30% could be set as 3 if the growth of the target is normal and consistent with that of the blank control)
Alternaria kikuchiana; 100 mg/L
  Fungicidal activity (antibacterial rate grade) Alternaria kikuchiana: 3 (The antibacterial rate of 0˜30% could be set as 3 if the growth of the target is normal and consistent with that of the blank control)
Botrytis cinerea; 12.5 mg/L
  Fungicidal activity (antibacterial rate grade) Botrytis cinerea: 3 (The antibacterial rate of 0˜30% could be set as 3 if the growth of the target is normal and consistent with that of the blank control)
Botrytis cinerea; 25 mg/L
  Fungicidal activity (antibacterial rate grade) Botrytis cinerea: 3 (The antibacterial rate of 0˜30% could be set as 3 if the growth of the target is normal and consistent with that of the blank control)
Botrytis cinerea; 50 mg/L
  Fungicidal activity (antibacterial rate grade) Botrytis cinerea: 3 (The antibacterial rate of 0˜30% could be set as 3 if the growth of the target is normal and consistent with that of the blank control)
Botrytis cinerea; 100 mg/L
  Fungicidal activity (antibacterial rate grade) Botrytis cinerea: 3 (The antibacterial rate of 0˜30% could be set as 3 if the growth of the target is normal and consistent with that of the blank control)
[4]; 12.5 mg/L
  Fungicidal activity (antibacterial rate grade) Corynespora leaf spot of tomato: 3 (The antibacterial rate of 0˜30% could be set as 3 if the growth of the target is normal and consistent with that of the blank control)
[4]; 25 mg/L
  Fungicidal activity (antibacterial rate grade) Corynespora leaf spot of tomato: 3 (The antibacterial rate of 0˜30% could be set as 3 if the growth of the target is normal and consistent with that of the blank control)
[4]; 50 mg/L
  Fungicidal activity (antibacterial rate grade) Corynespora leaf spot of tomato: 7 (The antibacterial rate of 70˜90% could be set as 7 if the target has small amounts of growth)
[4]; 100 mg/L
  Fungicidal activity (antibacterial rate grade) Corynespora leaf spot of tomato: 7 (The antibacterial rate of 70˜90% could be set as 7 if the target has small amounts of growth)
Fusarium culmorum; 12.5 mg/L
  Fungicidal activity (antibacterial rate grade) Fusarium culmorum: 7 (The antibacterial rate of 70˜90% could be set as 7 if the target has small amounts of growth)
Fusarium culmorum; 25 mg/L
  Fungicidal activity (antibacterial rate grade) Fusarium culmorum: 9 (The antibacterial rate of 90˜100% could be set as 9 if the target has totally no growth)
Fusarium culmorum; 50 mg/L
  Fungicidal activity (antibacterial rate grade) Fusarium culmorum: 9 (The antibacterial rate of 90˜100% could be set as 9 if the target has totally no growth)
Fusarium culmorum; 100 mg/L
  Fungicidal activity (antibacterial rate grade) Fusarium culmorum: 9 (The antibacterial rate of 90˜100% could be set as 9 if the target has totally no growth)
Rhizoctonia solani; 12.5 mg/L
  Fungicidal activity (antibacterial rate grade) Rhizoctonia solani: 3 (The antibacterial rate of 0˜30% could be set as 3 if the growth of the target is normal and consistent with that of the blank control)
Rhizoctonia solani; 25 mg/L
  Fungicidal activity (antibacterial rate grade) Rhizoctonia solani: 3 (The antibacterial rate of 0˜30% could be set as 3 if the growth of the target is normal and consistent with that of the blank control)
Rhizoctonia solani; 50 mg/L
  Fungicidal activity (antibacterial rate grade) Rhizoctonia solani: 3 (The antibacterial rate of 0˜30% could be set as 3 if the growth of the target is normal and consistent with that of the blank control)
Rhizoctonia solani; 100 mg/L
  Fungicidal activity (antibacterial rate grade) Rhizoctonia solani: 3 (The antibacterial rate of 0˜30% could be set as 3 if the growth of the target is normal and consistent with that of the blank control)
